Measurements taken from US6087355A, “Cephalosporin antibiotics” (Microcide Pharmaceuticals, Inc., priority 1996, dated 2000).
Structures can show the parent of a compound that is named as a salt.

Key:
Test in all cases: In vitro MIC, agar dilution
Assay type in all cases: cell-based
[1] = tested on: S. aureus Col(Meth^R)(lac^-); details: Staphylococcus aureus, read-out: minimum inhibitory concentration (MIC)
Procedure: (§1) The compounds of the invention were evaluated against several β-lactamresistant (for example methicillin-resistant, vancomycin resistant, and/or ampicillin-resistant) bacteria strains by determining the minimum inhibitory concentration (MIC, μg/ml) of each compound with respect to each strain. The MIC, the lowest concentration of antibiotic which inhibits growth of the test organism, was determined by the agar dilution method.
(§2) To determine the MIC for bacterial isolates, the test compound was incorporated in a series of two-fold dilutions into liquified Mueller-Hinton agar. Upon solidification, a number of different bacterial strains were spot inoculated with a replicating device onto the agar surface.
(§3) Aliquots of antimicrobial agents were prepared in phosphate buffered saline (PBS) at pH 7.2. Tween 20 or DMSO was used as a solubilizing vehicle as needed. Standard methods of vortexing, sonicating and gentle heat were used to facilitate solubilizing the test agent. […] A 1.28 mg/mL stock solution was used with a subsequent highest working concentration of 128 μg/mL. Serial two-fold dilutions were done through ≤0.25 μg/mL. Each drug level was tested in duplicate. Two-fold drug dilutions were done in sterile 50 mL tubes with a final drug volume of 5 mL. Upon the addition of 45 mL of molten agar, a 10-fold dilution resulted. Two, 25 mL. plates were then poured into 15×150 mm square Petri plates with grids and allowed to harden.
(§4) A control plate with a reference drug, either cefotaxime, vancomycin or imipenem, was used as the positive growth control. Stock concentrations of reference antibiotics were prepared and frozen at -80° C. […] All test plates were used within 24 hours of preparation.
(§5) Satisfactory results were obtained where the inoculum contained about 10^4 colony forming units (cfu)±0.5 logs. Starting with pure cultures of the test isolates on agar plates, a few isolated colonies were transferred to a tube of nutrient broth and allowed to grow 4-6 hours at 35-36° C. to reach log-phase growth. Dropwise addition of the broth culture to PBS was done to match a 0.5 McFarland turbidity standard equal to 10^8 cfu/mL. This was further diluted ten-fold in PBS to reach a working inoculum concentration of 10^7 cfu/mL. When 1 μL of the working inoculum was applied to the agar surface a concentration of about 10^4 cfu per spot was obtained.
(§6) Disposable sterile 1 μL loops were used to inoculate test plates, with each isolate in a designated grid on the agar plate. An alternate method of inoculation involved the use of a replica plater, a device with 48 steel pins allowing the simultaneous inoculation of multiple isolates. After the spots had dried, the plates were incubated at 35-36° C. for 16-20 hours. Endpoints were assessed as the minimum inhibitory concentration (MIC) of antimicrobial agent.
The S. aureus Col strain is a high-level PBP2a producer, whereas S. aureus Col 8A, its isogenic partner, lacks PBP2a.

E. faecalis VanB(Van^R) = details: Enterococcus faecalis, read-out: minimum inhibitory concentration (MIC)
Procedure: as §1, §2, §3, §4, §5, §6

[2] = tested on: S. aureus 76(Meth^R)(lac^+); details: Staphylococcus aureus, read-out: minimum inhibitory concentration (MIC)
Procedure: as §1, §2, §3, §4, §5, §6

[3] = tested on: S. aureus ATCC 33593(Meth^R); details: Staphylococcus aureus, ATCC33593, read-out: minimum inhibitory concentration (MIC)
Procedure: as §1, §2, §3, §4, §5, §6

E. faecium ATCC 35667 = details: Enterococcus faecium, ATCC35667, read-out: minimum inhibitory concentration (MIC)
Procedure: as §1, §2, §3, §4, §5, §6

E. faecalis ATCC 29212 = details: Enterococcus faecalis, ATCC29212, read-out: minimum inhibitory concentration (MIC)
Procedure: as §1, §2, §3, §4, §5, §6

S. aureus ATCC 29213 = details: Staphylococcus aureus, ATCC29213, read-out: minimum inhibitory concentration (MIC)
Procedure: as §1, §2, §3, §4, §5, §6

[4] = tested on: S. aureus Spain #356(Meth^R); details: Staphylococcus aureus, read-out: minimum inhibitory concentration (MIC)
Procedure: as §1, §2, §3, §4, §5, §6

[5] = tested on: S. aureus ATCC 13709(Meth^S); details: Staphylococcus aureus, ATCC13709, S. aureus ATCC 13709(Meth^S); read-out: minimum inhibitory concentration (MIC)
Procedure: as §1, §2, §3, §4, §5, §6

[6] = tested on: S. haemolyticus 05(Meth^R); details: Staphylococcus haemolyticus, read-out: minimum inhibitory concentration (MIC)
Procedure: as §1, §2, §3, §4, §5, §6

[7] = tested on: S. aureus PC1(Meth^S)(lac^+); details: Staphylococcus aureus, read-out: minimum inhibitory concentration (MIC)
Procedure: as §1, §2, §3, §4, §5, §6

E. faecium VanA(Van^R) = details: Enterococcus faecium, read-out: minimum inhibitory concentration (MIC)
Procedure: as §1, §2, §3, §4, §5, §6

P. aeruginosa ATCC 27853 = details: Pseudomonas aeruginosa, ATCC27853, read-out: minimum inhibitory concentration (MIC)
Procedure: as §1, §2, §3, §4, §5, §6

E. faecium A491(Amp^R) = details: Enterococcus faecium, read-out: minimum inhibitory concentration (MIC)
Procedure: as §1, §2, §3, §4, §5, §6

E. coli ATCC 25992 = details: Escherichia coli, ATCC25992, read-out: minimum inhibitory concentration (MIC)
Procedure: as §1, §2, §3, §4, §5, §6

Row | Compound | MIC [1] [µg/mL] | MIC (E. faecalis VanB(Van^R)) [µg/mL] | MIC [2] [µg/mL] | MIC [3] [µg/mL] | MIC (E. faecium ATCC 35667) [µg/mL] | MIC (E. faecalis ATCC 29212) [µg/mL] | MIC (S. aureus ATCC 29213) [µg/mL] | MIC [4] [µg/mL] | MIC [5] [µg/mL] | MIC [6] [µg/mL] | MIC [7] [µg/mL] | MIC (E. faecium VanA(Van^R)) [µg/mL] | MIC (P. aeruginosa ATCC 27853) [µg/mL] | MIC (E. faecium A491(Amp^R)) [µg/mL] | MIC (E. coli ATCC 25992) [µg/mL]
1 | NCCSCc1cnccc1SC1=C(C(=O)O)N2C(=O)[C@@H](NC(=O)/C(=N\OCCF)c3csc(N)n3)[C@H]2SC1 [Cmpd 23, (7R)-7-[(Z)-2-(aminothiazol-4-yl)-2-(2-fluoroethoxyimino)acetamido]-3-(3-aminoethylthiomethylpyrid-4-ylthio)-3-cephem-4-carboxylate, trifluoroacetic acid salt] | 2 | 1 | 4 | 4 | 2 | 0.5 | 1 | 4 | 0.5 | 4 | 0.5 | 4 | > 32 | > 32 | 2
2 | NCC(=O)NCCSCc1cnccc1SC1=C(C(=O)O)N2C(=O)[C@@H](NC(=O)/C(=N\O)c3csc(N)n3)[C@H]2SC1 [Cmpd 24, (7R)-7-[(Z)-2-(aminothiazol-4-yl)-2-(hydroxyimino)acetamido]-3-[3-(glycyl)aminoethylthiomethylpyrid-4-ylthio]-3-cephem-4-carboxylate, trifluoroacetic acid salt] | 8 | 0.5 | 8 | 4 | 2 | 0.25 | 1 | 4 | 1 | 8 | 1 | 4 | > 32 | > 32 | 8
3 | N=CNCCSCc1cnccc1SC1=C(C(=O)O)N2C(=O)[C@@H](NC(=O)/C(=N\O)c3nc(N)sc3Cl)[C@H]2SC1 [Cmpd 31, (7R)-7-[(Z)-2-(2-amino-5-chlorothiazol-4-yl)-2-(hydroxyimino)acetamido]-3-(3-(N-formamidinoyl)aminoethylthiomethylpyrid-4-ylthio)-3-cephem-4-carboxylate, trifluoroacetic acid salt] | 2 | 0.25 | 2 | 2 | 0.5 | 0.5 | 0.25 | 2 | 0.25 | 4 | 0.25 | 1 | > 32 | 8 | 8
4 | CC(N)CSCc1cnccc1SC1=C(C(=O)O)N2C(=O)[C@@H](NC(=O)/C(=N\O)c3nc(N)sc3Cl)[C@H]2SC1 (stereo partly drawn) [Cmpd 36, (7R)-7-[(Z)-2-(2-amino-5-chlorothiazol-4-yl)-2-(hydroxyimino)acetamido]-3-(3-(2-aminoprop-1-ylthiomethyl)pyrid-4-ylthio)-3-cephem-4-carboxylate, trifluoroacetic acid salt] | 1 | 0.13 | 2 | 1 | 0.5 | 0.25 | 0.5 | 1 | 0.25 | 2 | 0.25 | 1 | > 32 | 8 | 16
